Laboratory results taken from patent publication US20070059704A1, “Detection system” (priority 2003, published 2007).

Tested on: J3130
Test: Bioassay: induction of growth of drug-dependent femX null mutant J3130 by antibiotics applied on paper discs
Type: cell-based, Streptomyces coelicolor
Conditions: for induction of growth of J3130 around the paper disc: paper disc on MMT medium spread with J3130 spores, result in words
From the text: To see if growth of J3130 could be induced by control antibiotics known to target the cell envelope, spores of J3130 were spread on MMT medium (Kieser et al, 2000) and potential inducers were applied on paper discs to the freshly spread plates. […] None of the other antibiotics tested, including many cell wall-specific non-glycopeptide antibiotics, induced growth of J3130.
In order to perform the assay of the invention, spores of J3130 are spread on MMT medium at concentration of approximately 5×10^6/12 cm^2 plate. Test compound is applied on paper discs to a number of freshly spread plates in parallel using a different concentration of the test compound in each plate.

| Molecule | induction of growth of J3130 around the paper disc | amount that gives a positive reaction in the bioassay (initial assessment of sensitivity) (J3130 bioassay, two-fold dilution series) [ng] |
| --- | --- | --- |
| N[C@H]1C(=O)N[C@@H]2Cc3ccc(c(Cl)c3)Oc3cc4cc(c3O)Oc3ccc(cc3Cl)[C@@H](O)[C@@H]3NC(=O)[C@H](NC(=O)[C@@H]4NC(=O)[C@@H](NC2=O)c2cc(O)cc(c2)Oc2cc1ccc2OS(=O)(=O)O)c1cc(Cl)c(O)c(c1)-c1c(O)cc(O)cc1[C@@H](C(=O)O)NC3=O [A47934] | induced a halo of growth |  |
| Ristocetin | induced a halo of growth |  |
| CN[C@H](CC(C)C)C(=O)N[C@H]1C(=O)N[C@@H](CC(N)=O)C(=O)N[C@H]2C(=O)N[C@H]3C(=O)N[C@H](C(=O)N[C@H](C(=O)O)c4cc(O)cc(O)c4-c4cc3ccc4O)[C@H](O[C@H]3C[C@](C)(N)[C@@H](O)[C@H](C)O3)c3ccc(c(Cl)c3)Oc3cc2cc(c3O[C@@H]2O[C@H](CO)[C@@H](O)[C@H](O)[C@H]2O[C@H]2C[C@](C)(N)[C@@H](O)[C@H](C)O2)Oc2ccc(cc2Cl)[C@H]1O [Chloroeremomycin] | induced a halo of growth |  |
| CN[C@H](CC(C)C)C(=O)N[C@H]1C(=O)N[C@@H](CC(N)=O)C(=O)N[C@H]2C(=O)N[C@H]3C(=O)N[C@H](C(=O)N[C@H](C(=O)O)c4cc(O)cc(O)c4-c4cc3ccc4O)[C@H](O)c3ccc(c(Cl)c3)Oc3cc2cc(c3O[C@@H]2O[C@H](CO)[C@@H](O)[C@H](O)[C@H]2O[C@H]2C[C@](C)(N)[C@H](O)[C@H](C)O2)Oc2ccc(cc2Cl)[C@H]1O [Vancomycin] | induced a halo of growth | 80 |
